From patent US10183908B2, “Compositions for the treatment of kidney and/or liver disease” (VECTUS BIOSYSTEMS LIMITED, priority 2015, dated 2019) come the findings set out here.

Assay [1] relates to A10 embryonic vascular smooth muscle cells. Description: xCELLigence cell impedance in A10 vascular smooth muscle cells. The note with it: test compounds at 62.5, 125 or 250 μM; FIG. 8; negative response = direct vasodilator. It is filed as cell-based. From the text:
The xCELLigence SP system (Roche) was used to measure changes in cellular impedance (cell index) following the treatment of A10 embryonic vascular smooth muscle cells (ATCC, CRL-1476) with test compound. In this in vitro cell based experimental system a negative impedance profile correlates with blood pressure reduction in rats—a decrease in impedance is associated with vasodilatation and an increase in impedance is associated with vasoconstriction (Stallaert W, Dorn J F, van der Westhuizen E, Audet M & Bouvier M. Impedance responses reveal β-adrenergic signaling […] and allow classification of ligands with distinct signalling profiles PLoS ONE 2012; 7(1):e29420, doi:10.1371/journal.pone.0029420).
(§1) Briefly, 50 μl of cell culture medium (DMEM low glucose supplemented with 10% fetal bovine serum at 37° C.) was added to each well of an E-Plate 96 (Roche), and the background impedance in each well was measured. 50 μl of A-10 cell suspension (10,000 cells/well) was then added to the appropriate wells of the E-Plate 96. Cell index was monitored for each well of the E-Plate 96 in RTCA SP Station within the cell culture incubator. After overnight incubation for 16-20 hours at 5% CO2 and 95% humidity, 100 μl of test compound solution (test compounds were prepared in DMSO and diluted with cell culture medium to a final DMSO concentration of 0.25%) was added to the appropriate wells of the E-Plate 96 and cell index values were measured immediately following compound treatment every 20 seconds for 3 hours. Cell index value is baseline-corrected by subtracting the cell index of vehicle-treated cells and normalized by dividing by the cell index at the time point immediately before compound addition. Baseline normalized cell index as a function of time is plotted using Roche RTCA software.
Compounds may achieve reductions in blood pressure by interaction with vascular smooth muscle cells causing these cells to relax resulting in vasodilatation and a reduction in blood pressure. These are termed direct vasodilators.

Assay [2] has as its system Rat (NRK-52E) renal proximal tubule cells. The assay can be described thus: Rescue of renal proximal tubule cells from cisplatin cytotoxicity (WST-8/CCK-8). It is filed as cell-based. To be noted: test compound 30 μM; cisplatin 5 μg/ml; 24 or 48 hours; FIG. 10. As for the experimental part: Rat (NRK-52E) renal proximal tubule cells grown in DMEM+10% FBS+1% NEAA+2 mM glutamine were placed in 96 well plates at 10,000 cells/well and incubated at 37° C. with 5% CO2 overnight. Test compounds at a concentration of 30 μM were incubated with human or rat renal proximal tubule cells for 2 hours at 37° C. and 5% CO2. Cis-diamminedichloroplatinum[…] (cisplatin) was then added at […] and each cell population was then incubated for 24 or 48 hours at 37° C. with 5% CO2. Test compounds were maintained at their original concentrations. To assay the cytotoxic effects of cisplatin on the rat renal proximal tubule cells a highly water-soluble tetrazolium salt, WST-8, which is reduced by dehydrogenases in cells to produce formazan, a water-soluble, yellow-coloured indicator dye was used following the manufacturer's instructions (specifically the Cell Count Kit-8 (CCK-8) assay from Sigma). Plate absorbance of the WST-8 (CCK-8) reagent was then measured at 450 nm using a Thermo Scientific Multiskan EX plate reader.

The subject of assay [3] is SHR. The assay can be described thus: Blood pressure in SHR by tail cuff plethysmography. Format: in vivo, rat. The note with it: SHR on 2.2% salt diet; 500 pmol/kg/min in drinking solution; 4 weeks; systolic, FIG. 11. An excerpt:
Fourteen week old SHR (on a 2.2% salt diet; Glen Forrest Stockfeeders) were randomly assigned to zero time control (14 week old rats), test compound treatment drinking solution (500 pmol/kg/min in deionised distilled water) or control drinking solution (5% ethanol in deionised distilled water). The rats assigned to zero time control group (14 week old rats) were anaesthetised and had their kidneys and liver harvested while rats assigned to control and test compound treatment were weighed twice weekly and had their drinking solution intake monitored to allow adjustment of the test compound concentration in the drinking solution to maintain a constant dose over the 4-week study period. Blood pressure was measured twice weekly by tail cuff plethysmography (PowerLab, ADInstruments, Castle Hill, NSW, Australia). After 4 weeks rats were anaesthetised (18 week old rats), and their kidneys and liver harvested.

Assay [4] deals with SHR. The assay can be described thus: Kidney fibrosis in SHR (Masson's trichrome). Format: in vivo, rat. To be noted: SHR on 2.2% salt diet, 500 pmol/kg/min, 4 weeks; for Fibrosis in the kidney compared to 18 week controls: FIG. 12, *p<0.05. An excerpt:
(§2) Fourteen week old SHR (on a 2.2% salt diet; Glen Forrest Stockfeeders) were randomly assigned to zero time control (14 week old rats), test compound treatment drinking solution (500 pmol/kg/min in deionised distilled water) or control drinking solution (5% ethanol in deionised distilled water). The rats assigned to zero time control group (14 week old rats) were anaesthetised and had their kidneys and liver harvested while rats assigned to control and test compound treatment were weighed twice weekly and had their drinking solution intake monitored to allow adjustment of the test compound concentration in the drinking solution to maintain a constant dose over the 4-week study period. Blood pressure was measured twice weekly by tail cuff plethysmography (PowerLab, ADInstruments, Castle Hill, NSW, Australia). After 4 weeks rats were anaesthetised (18 week old rats), and their kidneys and liver harvested. To quantitate tissue fibrosis and/or fat content, tissue slices ≤3 mm thick were fixed in 10% buffered formalin for 24 hours, processed and embedded in paraffin. Three micron transverse sections were stained using Masson's trichrome stain. A minimum of 20 random fields at magnification ×20 from transverse sections (5 at each of 2 levels) were digitized and the degree of fibrosis and fat content determined as a percent of field area of each digitized image using Image-Pro Plus V.7 (Media Cybernetics, Bethesda, Md., USA) then averaged to determine the level of fibrosis and/or fat content for each rat.

The subject of assay [5] is bovine aortic endothelial cells. The assay can be described thus: xCELLigence cell impedance in bovine aortic endothelial cells. It is filed as cell-based. To be noted: test compounds at 62.5, 125 or 250 μM; FIG. 9; negative response = indirect vasodilator. On the procedure: as §1
The xCELLigence SP system was also used to measure changes in cellular impedance following the treatment of bovine aortic endothelial cells (European Collection of Cell Cultures) with test compound. The method employed is the same for the A10 embryonic vascular smooth muscle cells described above but with the cell culture medium supplemented with 15% fetal bovine serum instead of 10%.
Compounds may interact with vascular endothelial cells causing the release of substances such as nitric oxide and endothelium-derived hyperpolarising factor, which in turn act on the vascular smooth muscle cells causing vasodilatation and lowering blood pressure. Such compounds are termed indirect vasodilators.

In assay [6] the test system is SHR. The assay can be described thus: Hepatic fibrosis in SHR (Masson's trichrome). The note with it: for Tissue architecture of portal tracts in Masson's tri-chrome stained liver sections: SHR treated rats vs control, FIG. 14; for Fibrosis in the liver compared to 18 week controls: SHR, 500 pmol/kg/min, 4 weeks, FIG. 13, *p<0.05, **p<0.025, ***p<0.01. It is filed as in vivo, rat.
Excerpt: as §2

In assay [7] the test system is SHR. Description: Hepatic fat content in SHR. Format: in vivo, rat. The note with it: SHR on 2.2% salt diet; 500 pmol/kg/min; 4 weeks; FIG. 15, *p<0.05, **p<0.025, ***p<0.01.
Excerpt: as §2

As for `NC(=O)CCc1cc(-c2cccnc2)ccc1-c1cccc(O)c1` [Compound P5, 3-(3′-Hydroxy-4-(pyridin-3-yl)-[1,1′-biphenyl]-2-yl)propanamide], the “impedance response for A10 vascular smooth muscle cells” value in assay [1] is reported as “Negative impedance responses”. In assay [2], the “Cisplatin induced cell death in renal proximal tubular cells” value (“Cisplatin induced cell death” below) was “decreased”. Also, the Blood pressure entry in the assay with SHR [3] is listed as “reduced”. Also, the “Fibrosis in the kidney compared to 14 week controls” value in the assay with SHR [4] (FIG. 12, #p<0.05, reversal of established fibrosis) is listed as “decreased”. In addition, in the assay on SHR [4], the “Fibrosis in the kidney compared to 18 week controls” value was “decreased”.

Take `NC(=O)CCc1cc(-c2ccsc2)ccc1-c1cccc(O)c1` [Compound P8, 3-(3′-Hydroxy-4-(thiophen-3-yl)-[1,1′biphenyl]-2-yl)propanamide]: the “impedance response for A10 vascular smooth muscle cells” value in assay [1] was “Negative impedance responses”. In addition, the “impedance response for bovine aortic endothelial cells” value in assay [5] is “Negative impedance responses”. Besides, in assay [2], the “Cisplatin induced cell death” value is “decreased”. The Blood pressure entry with SHR [3] is listed as “reduced”. Moreover, the “Fibrosis in the kidney compared to 18 week controls” value with SHR [4] is reported as “decreased”. Moreover, in the assay with SHR [6], the “Tissue architecture of portal tracts in Masson's tri-chrome stained liver sections” value was “normal tissue architecture has been restored” and the “Fibrosis in the liver compared to 18 week controls” value is reported as “decreased”.

As to `NC(=O)CCc1cc(-c2cn[nH]c2)ccc1-c1cccc(O)c1` [Compound P22, 3-(3′-Hydroxy-4-(1H-pyrazol-4-yl)-[1,1′-biphenyl]-2-yl)propanamide], the “impedance response for bovine aortic endothelial cells” value in assay [5] is recorded as “Negative impedance responses”. In assay [2], the “Cisplatin induced cell death” value is recorded as “decreased”. The Blood pressure entry in the assay with SHR [3] is given as “reduced”. The “Fibrosis in the kidney compared to 18 week controls” value with SHR [4] is listed as “decreased”. In addition, the “Fibrosis in the liver compared to 18 week controls” value with SHR [6] is reported as “decreased”. Further, the “Fat in the liver compared to 18 week controls” value in the assay with SHR [7] is “reduced”.

For the molecule `NC(=O)CCc1cc(-c2cncnc2)ccc1-c1cccc(O)c1` [Compound P26, 3-(3′-Hydroxy-4-(pyrimidin-5-yl)-[1,1-biphenyl]-2-yl)propanamide], the “impedance response for bovine aortic endothelial cells” value in assay [5] is reported as “Negative impedance responses”. The “Cisplatin induced cell death” value in assay [2] is “decreased”. Also, in the assay with SHR [4], the “Fibrosis in the kidney compared to 18 week controls” value is “decreased”. Also, in the assay on SHR [6], the “Tissue architecture of portal tracts in Masson's tri-chrome stained liver sections” value is “normal tissue architecture has been restored” and the “Fibrosis in the liver compared to 18 week controls” value is listed as “decreased”. For the same molecule, the “Fat in the liver compared to 18 week controls” value with SHR [7] is “reduced”.

`Cc1nc(C)c(-c2ccc(-c3cccc(O)c3)c(CCC(N)=O)c2)s1` [Compound P40, 3-(4-(2,4-Dimethylthiazol-5-yl)-3′-hydroxy-[1,1′biphenyl]-2-yl)propanamide]: the “Cisplatin induced cell death” value in assay [2] was “decreased”. In addition, in the assay with SHR [3], the Blood pressure result is reported as “reduced”. The “Fibrosis in the kidney compared to 18 week controls” value in the assay on SHR [4] is recorded as “decreased”. In the assay with SHR [6], the “Fibrosis in the liver compared to 18 week controls” value is recorded as “decreased”. For the same molecule, the “Fat in the liver compared to 18 week controls” value with SHR [7] was “reduced”.
